Where two headings read alike, the source gives them in different places.
Columns and labels:
Assay in all cases: Test A postemergence
Type in all cases: in vivo
[1] = tested on: Galium (catchweed bedstraw, Galium aparine); settings: Galium, post-emergence, 240 h, postemergence; for pest or weed control at 125 g/ha: 125 g ai/ha
Outline: (§1)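 Preemergence directed soil spray on seeded pots, or postemergence application to plants 2–10 cm, one- to two-leaf. Solvent mixture non-phytotoxic, with surfactant. Scored ~10 d later, visually, 0–100 vs untreated.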

Kochia (Kochia scoparia) = settings: Bassia scoparia, post-emergence, 240 h, postemergence; for pest or weed control at 125 g/ha: 125 g ai/ha
Outline: as §1

[2] = tested on: barnyardgrass (Echinochloa crus-galli); settings: Echinochloa crus-galli, post-emergence, 240 h, postemergence; for pest or weed control at 125 g/ha: 125 g ai/ha
Outline: as §1

[3] = tested on: blackgrass (Alopecurus myosuroides); settings: Alopecurus myosuroides, post-emergence, 240 h, postemergence; for pest or weed control at 125 g/ha: 125 g ai/ha
Outline: as §1

corn (Zea mays) = settings: Zea mays, post-emergence, 240 h, postemergence; for plant injury at 125 g/ha: 125 g ai/ha
Outline: as §1

[4] = tested on: pigweed (Amaranthus retroflexus); settings: Amaranthus retroflexus, post-emergence, 240 h, postemergence; for pest or weed control at 125 g/ha: 125 g ai/ha
Outline: as §1

[5] = visual injury rating after approximately 10 d, read-out: Galium plant response rating (0 to 100 scale, 0 no effect, 100 complete control)
[6] = visual injury rating after approximately 10 d, read-out: Kochia plant response rating (0 to 100 scale, 0 no effect, 100 complete control)
[7] = visual injury rating after approximately 10 d, read-out: Barnyardgrass plant response rating (0 to 100 scale, 0 no effect, 100 complete control)
[8] = visual injury rating after approximately 10 d, read-out: Blackgrass plant response rating (0 to 100 scale, 0 no effect, 100 complete control)
[9] = visual injury rating after approximately 10 d, read-out: Corn plant response rating (0 to 100 scale, 0 no effect, 100 complete control)
[10] = visual injury rating after approximately 10 d, read-out: Pigweed plant response rating (0 to 100 scale, 0 no effect, 100 complete control)

Row | Compound | pest or weed control at 125 g/ha [1, 5] [%] | pest or weed control at 125 g/ha (Kochia (Kochia scoparia); [6]) [%] | pest or weed control at 125 g/ha [2, 7] [%] | pest or weed control at 125 g/ha [3, 8] [%] | plant injury at 125 g/ha (corn (Zea mays); [9]) [%] | pest or weed control at 125 g/ha [4, 10] [%] | other results
1 | CN1C[C@H](c2ccc(F)c(F)c2)[C@@H](C(=S)Nc2ccccc2F)C1=O (racemic) [Compound 1153] | – | – | – | – | – | – | pest or weed control at 125 g/ha ([1]; visual injury on 0 to 100 scale (0 no effect, 100 complete control), approx. 10 d, read-out: Galium plant response rating): 30%; pest or weed control at 500 g/ha ([1]; 500 g ai/ha, 0 to 100 scale, 0 is no effect, 100 is complete control, read-out: Galium plant response rating): 40%; pest or weed control at 125 g/ha (Kochia (Kochia scoparia); visual injury on 0 to 100 scale (0 no effect, 100 complete control), approx. 10 d, read-out: Kochia plant response rating): 0%; pest or weed control at 500 g/ha (Kochia (Kochia scoparia); 500 g ai/ha, 0 to 100 scale, 0 is no effect, 100 is complete control, read-out: Kochia plant response rating): 0%; pest or weed control at 125 g/ha ([2]; visual injury on 0 to 100 scale (0 no effect, 100 complete control), approx. 10 d, read-out: Barnyardgrass plant response rating): 90%; pest or weed control at 500 g/ha ([2]; 500 g ai/ha, 0 to 100 scale, 0 is no effect, 100 is complete control, read-out: Barnyardgrass plant response rating): 90%; pest or weed control at 125 g/ha ([3]; visual injury on 0 to 100 scale (0 no effect, 100 complete control), approx. 10 d, read-out: Blackgrass plant response rating): 0%; pest or weed control at 500 g/ha ([3]; 500 g ai/ha, 0 to 100 scale, 0 is no effect, 100 is complete control, read-out: Blackgrass plant response rating): 30%; plant injury at 125 g/ha (corn (Zea mays); visual injury on 0 to 100 scale (0 no effect, 100 complete control), approx. 10 d, read-out: Corn plant response rating): 0%; plant injury at 500 g/ha (corn (Zea mays); 500 g ai/ha, 0 to 100 scale, 0 is no effect, 100 is complete control, read-out: Corn plant response rating): 0%; pest or weed control at 125 g/ha ([4]; visual injury vs untreated controls after approx. 10 d, 0 = no effect, 100 = complete control, read-out: Pigweed plant response rating (0 to 100 scale)): 0%; pest or weed control at 500 g/ha ([4]; 500 g ai/ha, 0 to 100 scale, 0 is no effect, 100 is complete control, read-out: Pigweed plant response rating): 0%
2 | CN1C[C@H](c2cccc(C3CC3)c2)[C@@H](C(=O)Nc2cccc(F)c2F)C1=O [Compound 816] | 60 | 30 | 90 | 60 | 90 | 0 | –
3 | CN1C[C@H](c2cccc(F)c2)[C@@H](C(=O)Nc2ccccc2S(C)(=O)=O)C1=O [Compound 824] | 40 | 0 | 90 | 20 | 0 | 0 | –
4 | O=C1NC[C@H](c2cccc(C(F)(F)F)c2)[C@H]1C(=O)Nc1cccc2c1OC(F)(F)O2 [Compound 827] | 40 | 0 | 70 | 40 | 20 | 0 | –
5 | Cc1c(F)ccc([C@H]2CNC(=O)[C@@H]2C(=O)Nc2ccc(F)c(F)c2F)c1F [Compound 830] | 30 | 30 | 90 | 20 | 0 | 0 | –
6 | Cc1c(F)ccc([C@H]2CNC(=O)[C@@H]2C(=O)Nc2ccccc2C(F)(F)F)c1F [Compound 831] | 20 | 0 | 30 | 0 | 0 | 0 | –
7 | Cc1c(F)ccc([C@H]2CNC(=O)[C@@H]2C(=O)Nc2ccccc2S(C)(=O)=O)c1F [Compound 832] | 50 | 20 | 70 | 0 | 0 | 0 | –
8 | Cc1c(F)ccc([C@H]2CN(C)C(=O)[C@@H]2C(=O)Nc2cccc(F)c2F)c1F [Compound 834] | 60 | 40 | 90 | 60 | 40 | 20 | –
9 | Cc1c(F)ccc([C@H]2CN(C)C(=O)[C@@H]2C(=O)Nc2ccc(F)cc2F)c1F [Compound 835] | 30 | 0 | 90 | 40 | 30 | 20 | –
10 | CSc1ccccc1NC(=O)[C@H]1C(=O)N(C)C[C@@H]1c1cc(C)cc(F)c1 [Compound 851] | 30 | 0 | 90 | 0 | 0 | 0 | –
11 | COc1cc([C@H]2CN(C)C(=O)[C@@H]2C(=O)Nc2ccccc2F)cc(C(F)(F)F)c1 [Compound 855] | 0 | 0 | 90 | 60 | 70 | 20 | –
12 | CN1C[C@H](c2cccc(OC(F)(F)C(F)F)c2)[C@@H](C(=O)Nc2ccccc2S(C)(=O)=O)C1=O [Compound 864] | 20 | 0 | 90 | 50 | 60 | 20 | –
13 | CN1C[C@H](c2cc(F)cc(F)c2)[C@@H](C(=O)Nc2ccc(C(F)(F)F)cn2)C1=O [Compound 869] | 0 | 0 | 80 | 0 | 0 | 0 | –
14 | CN1C[C@H](c2cc(F)cc(F)c2)[C@@H](C(=O)Nc2ccc(C(F)(F)F)nc2)C1=O [Compound 870] | 0 | 0 | 0 | 0 | 0 | 0 | –
15 | CN1C[C@H](c2cccc(COC(F)F)c2)[C@@H](C(=O)Nc2cccc(F)c2F)C1=O [Compound 873] | 50 | 60 | 90 | 50 | 70 | 30 | –
16 | CN1C[C@H](c2cc(F)c(F)c(F)c2)[C@@H](C(=O)Nc2cccc(F)c2F)C1=O [Compound 879] | 50 | 60 | 100 | 70 | 60 | 20 | –
17 | CN1C[C@H](c2cc(F)c(F)c(F)c2)[C@@H](C(=O)Nc2ccccc2S(C)(=O)=O)C1=O [Compound 880] | 60 | 20 | 90 | 0 | 20 | 50 | –
18 | COc1c(F)ccc([C@H]2CNC(=O)[C@@H]2C(=O)Nc2ccc(F)cc2F)c1Cl [Compound 883] | 0 | 30 | 90 | 0 | 0 | 0 | –
19 | Cc1cc(C)cc([C@H]2CNC(=O)[C@@H]2C(=O)Nc2ccccc2F)c1 [Compound 888] | 0 | 0 | 90 | 20 | 0 | 0 | –
20 | COc1c(F)ccc([C@H]2CN(C)C(=O)[C@@H]2C(=O)Nc2ccccc2F)c1Cl [Compound 892] | 20 | 40 | 90 | 0 | 0 | 0 | –
21 | COc1c(F)ccc([C@H]2CN(C)C(=O)[C@@H]2C(=O)Nc2ccc(F)c(F)c2F)c1Cl [Compound 895] | 70 | 70 | 90 | 60 | 80 | 40 | –
